Assay results from patent publication US4649198A, “Imidazo(1,5-a)pyrimidine derivatives and their use as antimycotic agents” (Kyorin Pharmaceutical Co., Ltd., priority 1983, dated 1987).
Converted amounts (≈) assume the structure as drawn.

Columns and labels:
Test in all cases: antifungal activity, standard agar dilution streak method
Assay type in all cases: cell-based
[1] = system: Candida albicans MTU-12124; settings: MTU12124, read-out: Minimum Inhibitory Concentration
Description: (§1) The antifungal activity of the compound of the present invention was assayed by the standard agar dilution streak method against fungi.

[2] = system: Candida stellatidea IFO-1398; settings: IFO1398, read-out: Minimum Inhibitory Concentration
Description: as §1

[3] = system: Candida albicans IFO-1594; settings: IFO1594, read-out: Minimum Inhibitory Concentration
Description: as §1

Candida albicans 3147 = settings: read-out: Minimum Inhibitory Concentration
Description: as §1

Candida albicans KYF-602 = settings: KYF602, read-out: Minimum Inhibitory Concentration
Description: as §1

[4] = system: Candida albicans IFO-1388; settings: IFO1388, read-out: Minimum Inhibitory Concentration
Description: as §1

[5] = system: Aspergillus fumigatus MTU-06002; settings: MTU06002, read-out: Minimum Inhibitory Concentration
Description: as §1

Microsporum canis 20010 = settings: read-out: Minimum Inhibitory Concentration
Description: as §1

[6] = system: Trichophyton mentagrophytes MTU-19005; settings: MTU19005, read-out: Minimum Inhibitory Concentration
Description: as §1

[7] = system: Trichophyton mentagrophytes MTU-19003; settings: MTU19003, read-out: Minimum Inhibitory Concentration
Description: as §1

Compound	MIC [1] [µg/mL]	MIC [2] [µg/mL]	MIC [3] [µg/mL]	MIC (Candida albicans 3147) [µg/mL]	MIC (Candida albicans KYF-602) [µg/mL]	MIC [4] [µg/mL]	MIC [5] [µg/mL]	MIC (Microsporum canis 20010) [µg/mL]	MIC [6] [µg/mL]	MIC [7] [µg/mL]
Clc1cc(Cl)n2c(-c3ccc(I)cc3)ncc2n1 [Ex. 21]	1.56 (≈ 4 µM)	1.56 (≈ 4 µM)	6.25 (≈ 16 µM)	1.56 (≈ 4 µM)	> 6.25	3.13 (≈ 8.03 µM)				
Clc1ccc(Cc2ncc3nc(Cl)cc(Cl)n23)cc1 [Ex. 16]	6.25 (≈ 20 µM)	0.78 (≈ 2.5 µM)	1.56 (≈ 4.99 µM)	1.56 (≈ 4.99 µM)	3.13 (≈ 10 µM)	1.56 (≈ 4.99 µM)	3.13 (≈ 10 µM)	0.39 (≈ 1.25 µM)	0.2 (≈ 0.64 µM)	1.56 (≈ 4.99 µM)
Clc1ccc(-c2ncc3nc(Cl)cc(Cl)n23)cc1 [Ex. 1, 2,4-dichloro-6-(4-chlorophenyl)imidazo[1,5-a]pyrimidine]	3.13 (≈ 10.5 µM)	0.2 (≈ 0.67 µM)	3.13 (≈ 10.5 µM)	6.25 (≈ 20.9 µM)	6.25 (≈ 20.9 µM)	1.56 (≈ 5.23 µM)	6.25 (≈ 20.9 µM)	0.78 (≈ 2.61 µM)	0.78 (≈ 2.61 µM)	1.56 (≈ 5.23 µM)
Clc1cc(Cl)n2c(-c3ccc(Br)cc3)ncc2n1 [Ex. 5]	3.13 (≈ 9.13 µM)	0.2 (≈ 0.583 µM)	3.13 (≈ 9.13 µM)	1.56 (≈ 4.55 µM)	6.25 (≈ 18.2 µM)	1.56 (≈ 4.55 µM)	6.25 (≈ 18.2 µM)	0.78 (≈ 2.27 µM)	0.78 (≈ 2.27 µM)	1.56 (≈ 4.55 µM)
CC(c1ccccc1)c1ncc2nc(Cl)cc(Cl)n12 (centres unmarked) [Ex. 18]	3.13 (≈ 10.7 µM)	3.13 (≈ 10.7 µM)	3.13 (≈ 10.7 µM)	3.13 (≈ 10.7 µM)	12.5 (≈ 42.8 µM)	0.78 (≈ 2.67 µM)	25 (≈ 85.6 µM)	1.56 (≈ 5.34 µM)	1.56 (≈ 5.34 µM)	1.56 (≈ 5.34 µM)
Clc1cc(Cl)n2c(C3CCCCC3)ncc2n1 [Ex. 23]	6.25 (≈ 23.1 µM)	3.13 (≈ 11.6 µM)	0.39 (≈ 1.44 µM)	1.56 (≈ 5.77 µM)	3.13 (≈ 11.6 µM)	0.2 (≈ 0.74 µM)	50 (≈ 185 µM)	1.56 (≈ 5.77 µM)	1.56 (≈ 5.77 µM)	3.13 (≈ 11.6 µM)
Clc1ccc(Cc2ncc3nc(Cl)cc(Cl)n23)c(Cl)c1 [Ex. 20]	0.78 (≈ 2.25 µM)	0.2 (≈ 0.576 µM)	0.78 (≈ 2.25 µM)	0.78 (≈ 2.25 µM)	> 6.25	0.78 (≈ 2.25 µM)	> 6.25	0.78 (≈ 2.25 µM)	0.78 (≈ 2.25 µM)	1.56 (≈ 4.5 µM)
Clc1ccc(-c2ncc3nc(Cl)cc(Cl)n23)c(Cl)c1 [Ex. 9]	1.56 (≈ 4.68 µM)	0.78 (≈ 2.34 µM)	3.13 (≈ 9.4 µM)	1.56 (≈ 4.68 µM)	6.25 (≈ 18.8 µM)	0.78 (≈ 2.34 µM)	12.5 (≈ 37.5 µM)	1.56 (≈ 4.68 µM)	0.78 (≈ 2.34 µM)	1.56 (≈ 4.68 µM)
Clc1cc(Cl)n2c(-c3ccc(Cl)c(Cl)c3)ncc2n1 [Ex. 7]	1.56 (≈ 4.68 µM)	0.39 (≈ 1.17 µM)	1.56 (≈ 4.68 µM)	1.56 (≈ 4.68 µM)	3.13 (≈ 9.4 µM)	1.56 (≈ 4.68 µM)	> 100	0.39 (≈ 1.17 µM)	139 (≈ 417 µM)	0.78 (≈ 2.34 µM)
